# Experimental data: ChEMBL document CHEMBL4130530, “Lucky Switcheroo: Dramatic Potency and Selectivity Improvement of Imidazoline Inhibitors of Human Carbonic Anhydrase VII” (ACS Med Chem Lett, 2017)
# Target: Carbonic anhydrase 7 (Homo sapiens, UniProt P43166)
# Assay: Inhibition of recombinant human carbonic anhydrase 7 incubated for 15 mins prior to testing measured for 10 to 100 secs by phenol red based stopped-flow CO2 hydration assay
# Sequence of Carbonic anhydrase 7 (P43166 whole entry): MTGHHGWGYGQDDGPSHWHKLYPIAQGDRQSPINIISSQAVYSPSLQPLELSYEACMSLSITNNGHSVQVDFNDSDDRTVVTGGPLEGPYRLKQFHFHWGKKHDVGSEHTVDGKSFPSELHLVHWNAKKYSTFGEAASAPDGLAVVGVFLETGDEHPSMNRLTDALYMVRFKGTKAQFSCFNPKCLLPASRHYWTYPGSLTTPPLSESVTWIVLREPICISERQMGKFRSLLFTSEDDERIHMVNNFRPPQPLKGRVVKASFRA
row,SMILES,Ki
1,NS(=O)(=O)c1ccc(N2CCN=C2c2ccc(Cl)cc2)cc1,269 nM
2,NS(=O)(=O)c1ccc(N2CCN=C2c2ccc(F)cc2)cc1,303 nM

# Target: Carbonic anhydrase 4 (Homo sapiens, UniProt P22748)
# Assay: Inhibition of recombinant human carbonic anhydrase 4 incubated for 15 mins prior to testing measured for 10 to 100 secs by phenol red based stopped-flow CO2 hydration assay
# Sequence of Carbonic anhydrase 4 (P22748 whole entry): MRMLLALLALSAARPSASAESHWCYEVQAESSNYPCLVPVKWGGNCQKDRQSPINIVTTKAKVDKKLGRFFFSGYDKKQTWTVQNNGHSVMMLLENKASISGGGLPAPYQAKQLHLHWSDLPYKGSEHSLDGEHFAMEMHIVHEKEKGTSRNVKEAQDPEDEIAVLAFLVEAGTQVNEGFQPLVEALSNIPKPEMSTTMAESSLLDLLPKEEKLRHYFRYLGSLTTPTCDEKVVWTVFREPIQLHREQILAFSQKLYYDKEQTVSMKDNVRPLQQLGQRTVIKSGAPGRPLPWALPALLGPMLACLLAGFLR
row,SMILES,Ki
1,NS(=O)(=O)c1ccc(N2CCN=C2c2ccc(Cl)cc2)cc1,8140 nM
2,NS(=O)(=O)c1ccc(N2CCN=C2c2ccc(F)cc2)cc1,9730 nM

# Target: Carbonic anhydrase 2 (Homo sapiens, UniProt P00918)
# Assay: Inhibition of recombinant human carbonic anhydrase 2 incubated for 15 mins prior to testing measured for 10 to 100 secs by phenol red based stopped-flow CO2 hydration assay
row,SMILES,Ki
1,CCOc1ccccc1N1CCN=C1c1ccc(S(N)(=O)=O)cc1,866 nM
2,NS(=O)(=O)c1ccc(C2=NCCN2c2cccnc2)cc1,848 nM
3,NS(=O)(=O)c1ccc(C2=NCCN2c2ccccc2)cc1,376 nM
4,COc1ccc(N2CCN=C2c2ccc(S(N)(=O)=O)cc2)cc1OC,724 nM
5,Cc1ccccc1N1CCN=C1c1ccc(S(N)(=O)=O)cc1,61.7 nM
6,NS(=O)(=O)c1ccc(C2=NCCN2c2ccc(F)cc2)cc1,742 nM
7,NS(=O)(=O)c1ccc(N2CCN=C2c2ccc(Cl)cc2)cc1,46.7 nM
8,NS(=O)(=O)c1ccc(C2=NCCN2c2cncnc2)cc1,703 nM
9,COc1ccc(N2CCN=C2c2ccc(S(N)(=O)=O)cc2)cc1,53.3 nM
10,NS(=O)(=O)c1ccc(N2CCN=C2c2ccc(F)cc2)cc1,76.1 nM
11,NS(=O)(=O)c1ccc(C2=NCCN2c2ccc(Cl)cc2)cc1,182 nM

# Target: Carbonic anhydrase 1 (Homo sapiens, UniProt P00915)
# Assay: Inhibition of recombinant human carbonic anhydrase 1 incubated for 15 mins prior to testing measured for 10 to 100 secs by phenol red based stopped-flow CO2 hydration assay
# Sequence of Carbonic anhydrase 1 (P00915 whole entry): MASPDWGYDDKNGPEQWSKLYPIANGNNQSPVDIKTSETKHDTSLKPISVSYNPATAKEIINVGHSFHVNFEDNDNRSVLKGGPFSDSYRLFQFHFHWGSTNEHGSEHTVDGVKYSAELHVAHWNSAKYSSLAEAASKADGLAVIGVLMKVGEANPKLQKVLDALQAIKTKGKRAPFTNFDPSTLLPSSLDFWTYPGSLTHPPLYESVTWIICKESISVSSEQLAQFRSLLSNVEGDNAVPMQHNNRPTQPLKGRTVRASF
row,SMILES,Ki
1,NS(=O)(=O)c1ccc(N2CCN=C2c2ccc(Cl)cc2)cc1,960 nM
2,NS(=O)(=O)c1ccc(N2CCN=C2c2ccc(F)cc2)cc1,2340 nM
